According to patent EP4635958A1, “PYRIMIDINE-CONTAINING POLYCYCLIC DERIVATIVE INHIBITOR, AND PREPARATION METHOD THEREFOR AND USE THEREOF” (Shanghai Hansoh Biomedical Co., Ltd., priority 2022, dated 2024):

Key:
[1] = target: T1, KRAS G12D-SOS1 (Homo sapiens, UniProt P01116, G12D); assay: Blocking of KRAS G12D-SOS1 protein binding (Cisbio KRAS-G12D/SOS1 Binding Assay Kit, time-resolved fluorescence)
T1 construct: purchased Cisbio 63ADK000CB17PEG
Text: • 1. Experimental objective: […] Experimental reagents and instruments The centrifuge (5810R) was purchased from Eppendorf; the pipette was purchased from Eppendorf or Rainin; and the microplate reader was purchased from BioTek (United States) with a model of SynergyH1 multifunctional microplate reader. KRAS-G12D/SOS1 Binding Assay Kit was purchased from Cisbio, with a catalog number of 63ADK000CB17PEG; GTP was purchased from Sigma, with a catalog number of G8877; 384-well plate was purchased from Perkin Elmer, with a catalog number of 6007299. The Diluent buffer in the kit was used to dilute the compound into 10× compound solution of different concentrations, and 2 uL was added to each well of the 384-well plate. Tag2-KRAS G12D protein and GTP were formulated into a mixed solution of 5×KRAS G12D-GTP protein using Diluent buffer, and Tag1-SOS1 protein was formulated into a 5×SOS1 protein solution using Diluent buffer. Each solution was added to the 384-well plate separately at 4 uL per well, and incubated at room temperature for 15 min. A mixed solution of 2× anti-Tag1-Tb^3+ and anti-Tag2-XL665 formulated using detection buffer was added to the 384-well plate at 10 µL per well, and incubated at 4°C in the dark for 3 h.

[2] = system: p-ERK in AsPC-1 cells; assay: Inhibition of p-ERK in AsPC-1 cells (LANCE Ultra phospho-ERK1/2 kit); format: cell-based; details: Homo sapiens, ASPC1, 2 h with compound, read-out: AsPC-1_pERK IC50
Description: 1. Experimental objective: The inhibition activity of the example compounds on the phosphorylated ERK level in KRAS G12D mutant cells AsPC-1 was determined. 2. Experimental instruments: • 2.1 Instruments: Microplate reader (BioTek Synergy H1); Pipette (Eppendorf & Rainin) • 2.2 Reagents: Phosphorylated ERK1/2 (T202-Y204) LANCE Ultra Cellular Detection Kit was purchased from PerkinElmer, with a catalog number of TRF4000M; DMEM was purchased from Gibco, with a catalog number of 11995065; FBS was purchased from Gibco, with a catalog number of 10091148; PBS was purchased from Gibco, with a catalog number of 10010023; trypsin was purchased from Gibco, with a catalog number of 25200056; cell culture plates were purchased from Corning Company, with a catalog number of 3610; White opaque OptiPlate™-384 plates were purchased from PerkinElmer, with a catalog number of 6007290. 3. Experimental method: When AsPC-1 cells were cultured to appropriate confluence, the AsPC-1 cells were collected, and the cell density was adjusted to 1 × 10^6/mL using complete culture medium. […] The plate was read using BioTek Synergy H1 and the signal values at the emission wavelengths of 620 nm and 665 nm were detected using a time-resolved fluorescence program. […]

[3] = target: KRAS WT (Homo sapiens, UniProt P01116); assay: KRAS WT biochemical assay (Table 1, no method of its own); format: binding
Sequence of KRAS WT (P01116 1-188 isoform P01116-2): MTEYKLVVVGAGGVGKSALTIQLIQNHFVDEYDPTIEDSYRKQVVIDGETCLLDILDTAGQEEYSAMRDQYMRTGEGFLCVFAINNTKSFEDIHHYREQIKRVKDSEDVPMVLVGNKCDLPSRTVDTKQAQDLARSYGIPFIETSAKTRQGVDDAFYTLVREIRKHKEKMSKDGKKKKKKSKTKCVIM

T1 sequence (P01116 1-188 isoform P01116-2 G12D): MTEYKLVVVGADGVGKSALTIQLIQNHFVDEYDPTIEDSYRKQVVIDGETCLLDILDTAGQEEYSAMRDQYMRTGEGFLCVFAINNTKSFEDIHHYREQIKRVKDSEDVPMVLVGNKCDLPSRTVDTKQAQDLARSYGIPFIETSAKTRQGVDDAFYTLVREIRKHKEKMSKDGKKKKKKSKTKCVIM

Question: How did the IC50 [1] turn out when `C#Cc1c(F)ccc2cc(O)cc(-c3nc4c5c(nc(OCC6(CN7CCC(=C(F)F)CC7)CC6)nc5c3F)N3C[C@H]5CC[C@H](N5)[C@H]3CO4)c12` [Example 1-1, 4-((5aS,6S,9R)-12-((1-((4-(difluoromethylene)piperidin-1-yl)methyl)cyclopropyl)methoxy)-1-fluoro-5a,6,7,8,9,10-hexahydro-5H-4-oxa-3,10a,11,13,14-pentaaza-6,9-methylenenaphtho[1,8-ab]heptalene-2-yl)-5-ethynyl-6-fluoronaphthalen-2-ol] was run?
Answer: Its IC50 is 1.8 nM.

Question: And the IC50 [2]?
Answer: The IC50 was 1 nM.

Question: And the IC50 [3]?
Answer: The IC50 was 79 nM.
